# Source: patent publication US20240382596A1, “COMPOSITION OF VANCOMYCIN AQUEOUS SOLUTION” (HAINAN POLY PHARM. CO., LTD., priority 2021, published 2024)
# Experiments:
# [1] = Stability of vancomycin eye drops, HPLC relevant substances; format: physicochemical; conditions: eye drops study, 0 day
# Description: (§1) The embodiments are intended to facilitate understanding of the invention and should not be deemed as a limitation to the invention. • HPLC analysis conditions of the following embodiments were: • Chromatographic column: Welch Ultimate XB-C18 (250×4.6 mm, 5 μm) • Detection wavelength: 280 nm; • Column temperature: 30° C.; • Flow rate: 2.0 mL/min; • Injection volume: 20 μL; • Mobile phase: • Solution A: 4.0 mL of triethylamine was precisely measured, and water was added to bring the total volume to 2000 mL, and the pH of the solution was further adjusted to 3.20 with phosphoric acid; • Solution B: Acetonitrile-tetrahydrofuran-solution A=55−10−935, the pH was adjusted to 3.20 with phosphoric acid; • Solution C: acetonitrile-tetrahydrofuran-solution A=290−10−700, the pH was adjusted to 3.20 by phosphoric acid; • Elution gradient: […]
# After being placed under accelerated conditions of 25° C./60% RH for 30 days, relevant substances were sampled and detected. The result is shown in Table 7, the percentage of impurities peak area is calculated by peak area normalization method.
# [2] = Stability of vancomycin injection, HPLC relevant substances; format: physicochemical; conditions: injection study, 0 day
# Description: as §1
# After being placed under accelerated conditions of 25° C./60% RH for 30 days, relevant substances were sampled and detected.
# [3] = PK test of vancomycin injection; format: in vivo; conditions: SD rats following a single intrathecal dose; range over G1-G3
# Description: Nine male SD rats were divided into three groups. […] Plasma samples were collected at 0.083, 0.167, 0.25, 0.5, 1, 2, 4, 6, 8, 12, and 24 h post-dosing in each group. The concentration of vancomycin in plasma samples was detected using an established LC-MS/MS method.
substance,measurement,setting,value
Vancomycin hydrochloride,CDP-1,[1],0.32%
same,RS2,[1],0.53%
same,Vancomycin HCl,[1],95.81%
same,CDP-1,[2],0.32%
same,RS2,[2],0.55%
same,Vancomycin HCl,[2],95.19%
same,elimination half-life (T½),[3],40.7 to 50.5 min
